This note sets out measurements from patent US10308659B2, “Pyridine derivatives” (Hoffmann-La Roche Inc., priority 2013, dated 2019).

In one test the target is human CB2 receptors (Homo sapiens (Human), UniProt P34972). Kind of test: cAMP assay, CHO cells expressing human CB2 receptors. In kind it is cell-based. The following applies: functional cAMP assay, CHO cells expressing human CB2; read-out: EC50 CB2 human. Put shortly:
(§1)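 Transfected CHO cells were preincubated in Krebs Ringer bicarbonate buffer with 1 mM IBMX for 30 min at 30 °C, then exposed to compound for 30 min at 30 °C. cAMP was measured by time-resolved FRET (730/645 nm) against a standard curve spanning 10 μM to 0.13 nM. EC50 values derived from concentration–response data.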
For orientation: Changes in cAMP serve as a functional read-out for many G protein-coupled receptors.

The next test has as its target human CB1 receptors (Homo sapiens (Human), UniProt P21554). Kind of test: cAMP assay, CHO cells expressing human CB1 receptors. The format is cell-based. The following applies: functional cAMP assay, CHO cells expressing human CB1; read-out: EC50 CB1 human. The gist of the method:
as §1

Structures are written as SMILES. pEC50: −log10 of the molar value.

Sequence of human CB2 receptors (P34972 whole entry): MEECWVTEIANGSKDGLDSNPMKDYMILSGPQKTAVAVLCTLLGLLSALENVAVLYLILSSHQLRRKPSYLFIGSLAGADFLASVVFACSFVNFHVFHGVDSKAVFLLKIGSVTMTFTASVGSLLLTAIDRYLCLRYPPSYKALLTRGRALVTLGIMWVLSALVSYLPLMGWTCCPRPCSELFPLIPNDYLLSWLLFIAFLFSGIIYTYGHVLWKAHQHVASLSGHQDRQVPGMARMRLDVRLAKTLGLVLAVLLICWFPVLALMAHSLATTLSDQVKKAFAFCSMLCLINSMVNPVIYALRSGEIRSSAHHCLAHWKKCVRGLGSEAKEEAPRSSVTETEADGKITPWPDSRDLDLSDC
Sequence of human CB1 receptors (P21554 whole entry): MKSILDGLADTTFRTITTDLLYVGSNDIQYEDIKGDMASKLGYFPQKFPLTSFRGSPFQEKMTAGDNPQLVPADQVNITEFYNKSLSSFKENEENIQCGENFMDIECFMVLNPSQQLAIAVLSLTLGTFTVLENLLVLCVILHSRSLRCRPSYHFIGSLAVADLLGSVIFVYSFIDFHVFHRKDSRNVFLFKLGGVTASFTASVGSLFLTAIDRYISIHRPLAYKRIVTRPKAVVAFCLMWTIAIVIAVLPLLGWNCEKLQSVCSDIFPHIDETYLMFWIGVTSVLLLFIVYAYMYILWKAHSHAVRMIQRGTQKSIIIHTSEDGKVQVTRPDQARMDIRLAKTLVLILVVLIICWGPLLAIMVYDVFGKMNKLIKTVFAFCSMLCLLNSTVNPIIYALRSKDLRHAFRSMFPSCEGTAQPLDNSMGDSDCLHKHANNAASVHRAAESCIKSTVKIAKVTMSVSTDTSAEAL

Take `CC(C)(C)c1nc(-c2cc(OCc3cccnc3)c(C3CC3)cn2)no1` [Example 119, 5-tert-butyl-3-[5-cyclopropyl-4-(pyridin-3-ylmethoxy)pyridin-2-yl]-1,2,4-oxadiazole]: the figures for the pEC50 on human CB2 receptors and at human CB1 receptors were 7.33 and less than 5.00, respectively.
As to `C[C@H](Oc1cc(-c2nnc(C(C)(C)C)o2)ncc1C1CC1)C(F)(F)F` [Example 120, 2-tert-butyl-5-[5-cyclopropyl-4-[(2S)-1,1,1-trifluoropropan-2-yl]oxypyridin-2-yl]-1,3,4-oxadiazole], the pEC50 at human CB2 receptors was 7.20; at human CB1 receptors it was less than 5.00.
On the same counts, the results for `CC(C)(C)c1noc(-c2cc(OC3CCOCC3)c(C3CC3)cn2)n1` [Example 121, 3-tert-butyl-5-(5-cyclopropyl-4-(tetrahydro-2H-pyran-4-yloxy)pyridin-2-yl)-1,2,4-oxadiazole] are 9.00 and less than 5.00.
With `CN1CCC[C@H]1COc1cc(-c2nc(C(C)(C)C)no2)ncc1C1CC1` [Example 122, 3-tert-butyl-5-[5-cyclopropyl-4-[[(2S)-1-methylpyrrolidin-2-yl]methoxy]pyridin-2-yl]-1,2,4-oxadiazole], the pEC50 on human CB2 receptors was 6.84; at human CB1 receptors it was less than 5.00.
For `CC(C)(C)c1noc(-c2cc(OCC(F)F)c(C3CC3)cn2)n1` [Example 123, 3-tert-butyl-5-(5-cyclopropyl-4-(2,2-difluoroethoxy)pyridin-2-yl)-1,2,4-oxadiazole] the same measures were 8.70 and less than 5.00.

As a reminder, the pEC50 is the EC50 on a negative log10 scale, so that one unit is a factor of ten.
